In the supplement of paper PMC8617591:

Tests used:
[1] = system: Mycobacterium tuberculosis Erdman (autoluminescent); assay: FIC50 (Loewe) at 50% inhibition (log2); higher = more antagonistic
Method: (§1)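 DiaMOND equipotent two-drug combination dose responses against autoluminescent M. tuberculosis Erdman in 8 in vitro models. Read-out is OD600, or luminescence for the intracellular and dormancy models, normalised to untreated wells. Hill-fit Einf, AUC25 and GRinf are potency metrics; FIC50 and FIC90 are Loewe-additivity fractional inhibitory concentrations, given as log2 (negative = synergy). Replicates are averaged.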

[2] = system: Mycobacterium tuberculosis Erdman (autoluminescent); assay: FIC90 (Loewe) at 90% inhibition (log2); higher = more antagonistic
Method: as §1

[3] = system: Mycobacterium tuberculosis Erdman (autoluminescent); assay: AUC25, normalised area under dose response up to IC25 (fraction (0-1)); higher = more potent at low dose
Method: as §1

[4] = system: Mycobacterium tuberculosis Erdman (autoluminescent); assay: Einf, fitted maximum growth inhibition of combination (fraction); higher = stronger maximal inhibition
Method: as §1

[5] = system: Mycobacterium tuberculosis Erdman (autoluminescent); assay: GRinf, maximum normalised growth rate inhibition (unitless (-1 to 1)); higher = less effect (negative = killing)
Method: as §1

NNC(=O)c1ccncc1 [isoniazid] + CC(=O)NC[C@H]1CN(c2ccc(N3CCOCC3)c(F)c2)C(=O)O1 [linezolid]
Conditions	AUC25, [3]	Einf, [4]	FIC50, [1]	FIC90, [2]	GRinf, [5]
in vitro model: acidic pH 5.7, time point: constant (~7 days, model-specific)	0.0979	0.795	0.0411	–	-0.178
in vitro model: acidic pH 5.7, time point: terminal (~4-5 doublings, model-specific)	0.0773	0.963	0.877	0.0348	-0.173
in vitro model: intracellular J774, time point: constant = terminal	–	0.915	–	0.155	-0.0635

Conditions	AUC25, [3]	Einf, [4]	FIC50, [1]	FIC90, [2]	GRinf, [5]
in vitro model: butyrate, time point: constant (~7 days, model-specific)	0.0801	0.917	0.754	0.923	0.00442
in vitro model: butyrate, time point: terminal (~4-5 doublings, model-specific)	0.0539	0.959	0.657	0.547	0.0109
in vitro model: cholesterol 0.05 mM, time point: constant (~7 days, model-specific)	0.129	0.677	0.121	–	-0.0433
in vitro model: cholesterol 0.05 mM, time point: terminal (~4-5 doublings, model-specific)	0.14	0.945	4.49	-0.681	-0.23
in vitro model: cholesterol-high 0.2 mM, time point: constant (~7 days, model-specific)	0.127	0.928	-0.123	0.0406	-0.371
in vitro model: cholesterol-high 0.2 mM, time point: terminal (~4-5 doublings, model-specific)	0.119	1	-0.0744	0.498	-0.893
in vitro model: dormancy (butyrate + nitrate, low O2), time point: constant (~7 days, model-specific)	0.0528	0.912	1.45	0.856	0.109
in vitro model: dormancy (butyrate + nitrate, low O2), time point: terminal (~4-5 doublings, model-specific)	0.0354	0.989	1.06	0.558	0.00877
in vitro model: standard 7H9 glycerol, time point: constant = terminal	0.0758	0.909	0.116	0.045	0.137
in vitro model: valerate, time point: constant (~7 days, model-specific)	0.0661	0.818	0.548	–	0.0896
in vitro model: valerate, time point: terminal (~4-5 doublings, model-specific)	0.0441	0.916	0.612	0.861	0.0931

NNC(=O)c1ccncc1 [isoniazid] + CO[C@H]1/C=C/O[C@@]2(C)Oc3c(C)c(O)c4c(O)c(c(/C=N/N5CCN(C6CCCC6)CC5)c(O)c4c3C2=O)NC(=O)/C(C)=C\C=C\[C@H](C)[C@H](O)[C@@H](C)[C@@H](O)[C@@H](C)[C@H](OC(C)=O)[C@@H]1C [rifapentine]
Conditions	AUC25, [3]	Einf, [4]	FIC50, [1]	FIC90, [2]	GRinf, [5]
in vitro model: acidic pH 5.7, time point: constant (~7 days, model-specific)	0.0483	0.894	0.277	–	-0.237
in vitro model: acidic pH 5.7, time point: terminal (~4-5 doublings, model-specific)	0.0378	0.987	0.368	0.117	-0.277
in vitro model: intracellular J774, time point: constant = terminal	–	0.935	–	-0.279	-0.145

Conditions	AUC25, [3]	Einf, [4]	FIC50, [1]	FIC90, [2]	GRinf, [5]
in vitro model: butyrate, time point: constant (~7 days, model-specific)	0.0724	0.903	0.471	-0.186	0.0346
in vitro model: butyrate, time point: terminal (~4-5 doublings, model-specific)	0.0522	0.951	0.425	0.159	0.0382
in vitro model: cholesterol 0.05 mM, time point: constant (~7 days, model-specific)	0.0889	0.673	0.00942	–	-0.0811
in vitro model: cholesterol 0.05 mM, time point: terminal (~4-5 doublings, model-specific)	0.0939	0.917	0.122	1.12	-0.127
in vitro model: cholesterol-high 0.2 mM, time point: constant (~7 days, model-specific)	0.0721	0.937	0.338	–	-0.348
in vitro model: cholesterol-high 0.2 mM, time point: terminal (~4-5 doublings, model-specific)	0.0611	0.998	0.562	0.57	-0.717
in vitro model: dormancy (butyrate + nitrate, low O2), time point: constant (~7 days, model-specific)	0.0529	0.926	0.188	-0.294	0.144
in vitro model: dormancy (butyrate + nitrate, low O2), time point: terminal (~4-5 doublings, model-specific)	0.0384	0.985	-0.00795	-0.177	-0.174
in vitro model: standard 7H9 glycerol, time point: constant = terminal	0.0391	0.905	0.622	0.354	0.117
in vitro model: valerate, time point: constant (~7 days, model-specific)	0.034	0.752	0.888	–	0.146
in vitro model: valerate, time point: terminal (~4-5 doublings, model-specific)	0.0276	0.928	1	1.18	-0.00496

NNC(=O)c1ccncc1 [isoniazid] + CO[C@H]1/C=C/O[C@@]2(C)Oc3c(C)c(O)c4c(O)c(c(/C=N/N5CCN(C)CC5)c(O)c4c3C2=O)NC(=O)/C(C)=C\C=C\[C@H](C)[C@H](O)[C@@H](C)[C@@H](O)[C@@H](C)[C@H](OC(C)=O)[C@@H]1C [rifampicin]
Conditions	AUC25, [3]	Einf, [4]	FIC50, [1]	FIC90, [2]	GRinf, [5]
in vitro model: acidic pH 5.7, time point: constant (~7 days, model-specific)	0.0799	0.91	0.156	–	-0.381
in vitro model: acidic pH 5.7, time point: terminal (~4-5 doublings, model-specific)	0.0614	0.99	0.263	0.0584	-0.3
in vitro model: intracellular J774, time point: constant = terminal	–	0.966	–	-0.336	-0.212

Conditions	AUC25, [3]	Einf, [4]	FIC50, [1]	FIC90, [2]	GRinf, [5]
in vitro model: butyrate, time point: constant (~7 days, model-specific)	0.1	0.932	0.279	0.359	-0.0416
in vitro model: butyrate, time point: terminal (~4-5 doublings, model-specific)	0.0861	0.973	0.0238	0.0846	-0.0152
in vitro model: cholesterol 0.05 mM, time point: constant (~7 days, model-specific)	0.107	0.655	0.41	–	0.0341
in vitro model: cholesterol 0.05 mM, time point: terminal (~4-5 doublings, model-specific)	0.0769	0.897	0.0977	0.49	-0.0891
in vitro model: cholesterol-high 0.2 mM, time point: constant (~7 days, model-specific)	0.0535	0.91	-0.107	–	-0.249
in vitro model: cholesterol-high 0.2 mM, time point: terminal (~4-5 doublings, model-specific)	0.0593	1	0.355	0.101	-0.696
in vitro model: dormancy (butyrate + nitrate, low O2), time point: constant (~7 days, model-specific)	0.0607	0.931	-0.181	-1.07	0.104
in vitro model: dormancy (butyrate + nitrate, low O2), time point: terminal (~4-5 doublings, model-specific)	0.0631	0.989	-0.539	-0.256	-0.205
in vitro model: standard 7H9 glycerol, time point: constant = terminal	0.0779	0.914	0.445	-0.093	0.103
in vitro model: valerate, time point: constant (~7 days, model-specific)	0.0388	0.866	0.511	–	0.0415
in vitro model: valerate, time point: terminal (~4-5 doublings, model-specific)	0.0262	0.943	0.396	0.119	0.032
